Assay results reported in patent US12338256B2, “Aza-tetracyclic oxazepine compounds and uses thereof” (Genentech, Inc., priority 2022, dated 2025).

Tests used:
Format in all cases: cell-based
[1] = system: PC-9 (KRAS wild type human lung adenocarcinoma cell line); assay: KRAS 3D-Cell Proliferation Assay, PC-9 (Example 503); conditions: 168 h, PC-9 3D culture, 7 days, CellTiter-Glo 3D, read-out: Prolif PC9 3D ATP IC50
How it was run: (§1)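 Luminescent ATP readout (CellTiter-Glo 3D, with mechanical mixing) measures growth of cells cultured in 3D after a 7-day compound exposure at 37° C. Percent inhibition is referenced to vehicle (DMSO) and 1 μM staurosporine controls, and IC50 comes from a four-parameter Hill fit.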

[2] = system: H1975 (KRAS wild type human lung adenocarcinoma cell line); assay: KRAS 3D-Cell Proliferation Assay, H1975 (Example 503); conditions: Homo sapiens, NCI-H1975, 168 h, H1975 3D culture, 7 days, CellTiter-Glo 3D; read-out: Prolif H1975 3D ATP IC50
How it was run: as §1

[3] = system: HPAC (homozygous mutant KRAS G12D human pancreatic cell line); assay: KRAS 3D-Cell Proliferation Assay, HPAC (Example 503); conditions: Homo sapiens, HPAC, 168 h, HPAC 3D culture, 7 days, CellTiter-Glo 3D; read-out: Prolif HPAC 3D ATP IC50
How it was run: as §1

[4] = system: AsPC-1 (homozygous mutant KRAS G12D human pancreatic cell line); assay: KRAS 3D-Cell Proliferation Assay, AsPC-1 (Example 503); conditions: Homo sapiens, ASPC1, 168 h, AsPC-1 3D culture, 7 days, CellTiter-Glo 3D; read-out: Prolif AsPC-1 3D ATP IC50
How it was run: as §1

Row | Structure (SMILES) | IC50 [1] [µM] | IC50 [2] [µM] | IC50 [3] [nM] | IC50 [4] [nM]
1 | C[C@@H]1Oc2nc(-c3cncc4ccccc34)c(F)c3nc(OC[C@@]45CCCN4CC4(CC4(F)F)C5)nc(c23)N2C[C@H]3CC[C@H](N3)[C@@H]12 (stereo partly drawn) [Compound 30, (5S,5aS,6S,9R)-12-(((7a′S)-2,2-difluorodihydro-1′H,3′H-spiro[cyclopropane-1,2′-pyrrolizin]-7a′(5′H)-yl)methoxy)-1-fluoro-2-(isoquinolin-4-yl)-5-methyl-5a,6,7,8,9,10-hexahydro-5H-4-oxa-3,10a,11,13,14-pentaaza-6,9-methanonaphtho[1,8-ab]heptalene] | 3.81 | 2.89 | 154 | 166
2 | C#Cc1c(F)ccc2cc(O)cc(-c3nc4c5c(nc(OC[C@@]67CCCN6C[C@H](F)C7)nc5c3F)N3C[C@H]5CC[C@H](N5)[C@H]3CO4)c12 [Compound 81, 5-Ethynyl-6-fluoro-4-((5aS,6S,9R)-1-fluoro-12-(((2R,7aS)-2-fluorotetrahydro-1H-pyrrolizin-7a(5H)-yl)methoxy)-5a,6,7,8,9,10-hexahydro-5H-4-oxa-3,10a,11,13,14-pentaaza-6,9-methanonaphtho[1,8-ab]heptalen-2-yl)naphthalen-2-ol] | ≥ 20 | 4.78 | 12.4 | 14.7
3 | Cc1cc(N)nc(-c2nc3c4c(nc(OC[C@@]56CCCN5C[C@H](F)C6)nc4c2F)N2C[C@H]4CC[C@H](N4)[C@H]2[C@H](C)O3)c1C(F)(F)F [Compound 43, 6-((5S,5aS,6S,9R)-1-Fluoro-12-(((2R,7aS)-2-fluorotetrahydro-1H-pyrrolizin-7a(5H)-yl)methoxy)-5-methyl-5a,6,7,8,9,10-hexahydro-5H-4-oxa-3,10a,11,13,14-pentaaza-6,9-methanonaphtho[1,8-ab]heptalen-2-yl)-4-methyl-5-(trifluoromethyl)pyridin-2-amine] | ≥ 20 | 4.29 | 16.8 | 43.4
4 | Cc1c(F)c(N)cc(-c2nc3c4c(nc(OCC56CCN5C[C@H](F)C6)nc4c2F)N2C[C@H]4CC[C@H](N4)[C@H]2[C@H](C)O3)c1C(F)(F)F (stereo partly drawn) [Compound 29, 2-fluoro-5-((5S,5aS,6S,9R)-1-fluoro-12-(((3R)-3-fluoro-1-azabicyclo[3.2.0]heptan-5-yl)methoxy)-5-methyl-5a,6,7,8,9,10-hexahydro-5H-4-oxa-3,10a,11,13,14-pentaaza-6,9-methanonaphtho[1,8-ab]heptalen-2-yl)-3-methyl-4-(trifluoromethyl)aniline] | 8.19 | 6.11 | 7.76 | 4.98
5 | C[C@@H]1Oc2nc(-c3cc(N)c(F)cc3C(F)(F)F)c(F)c3nc(OC[C@@]45CCCN4C[C@H](F)C5)nc(c23)N2C[C@H]3CC[C@H](N3)[C@@H]12 [Compound 14, 2-fluoro-5-((5S,5aS,6S,9R)-1-fluoro-12-(((2R,7aS)-2-fluorotetrahydro-1H-pyrrolizin-7a(5H)-yl)methoxy)-5-methyl-5a,6,7,8,9,10-hexahydro-5H-4-oxa-3,10a,11,13,14-pentaaza-6,9-methanonaphtho[1,8-ab]heptalen-2-yl)-4-(trifluoromethyl)aniline] | 6.21 | 2.51 | 11.3 | 5.62
6 | C#Cc1cccc2cc(O)cc(-c3nc4c5c(ncnc5c3F)N3C[C@H]5CC[C@H](N5)[C@H]3[C@H](C)O4)c12 [Compound 54, 5-ethynyl-4-((5S,5aS,6S,9R)-1-fluoro-5-methyl-5a,6,7,8,9,10-hexahydro-5H-4-oxa-3,10a,11,13,14-pentaaza-6,9-methanonaphtho[1,8-ab]heptalen-2-yl)naphthalen-2-ol] | ≥ 20 | 20 | 3420 | 2090
7 | Cc1cc(-c2nc3c4c(nc(OC[C@@]56CCCN5C[C@H](F)C6)nc4c2F)N2C[C@H]4CC[C@H](N4)[C@H]2[C@H](C)O3)c(F)c(N)c1F [Compound 18, 2,6-difluoro-3-((5S,5aS,6S,9R)-1-fluoro-12-(((2R,7aS)-2-fluorotetrahydro-1H-pyrrolizin-7a(5H)-yl)methoxy)-5-methyl-5a,6,7,8,9,10-hexahydro-5H-4-oxa-3,10a,11,13,14-pentaaza-6,9-methanonaphtho[1,8-ab]heptalen-2-yl)-5-methylaniline] | 7.91 | 20 | 5220 | 5590
8 | CCc1cccc2cc(O)cc(-c3nc4c5c(nc(OC[C@@]67CCCN6C[C@H](F)C7)nc5c3F)N3C[C@H]5CC[C@H](N5)[C@H]3[C@H](C)O4)c12 [Compound 10, 5-ethyl-4-((5S,5aS,6S,9R)-1-fluoro-12-(((2R,7aS)-2-fluorotetrahydro-1H-pyrrolizin-7a(5H)-yl)methoxy)-5-methyl-5a,6,7,8,9,10-hexahydro-5H-4-oxa-3,10a,11,13,14-pentaaza-6,9-methanonaphtho[1,8-ab]heptalen-2-yl)naphthalen-2-ol] | 6.67 | 2.27 | 5.96 | 4.93
9 | C#Cc1cccc2cc(O)cc(-c3nc4c5c(nc(OC[C@@]67CCCN6C[C@H](F)C7)nc5c3F)N3C[C@H]5CC[C@H](N5)[C@H]3CO4)c12 [Compound 3, 5-ethynyl-4-((5aS,6S,9R)-1-fluoro-12-(((2R,7aS)-2-fluorotetrahydro-1H-pyrrolizin-7a(5H)-yl)methoxy)-5a,6,7,8,9,10-hexahydro-5H-4-oxa-3,10a,11,13,14-pentaaza-6,9-methanonaphtho[1,8-ab]heptalen-2-yl)naphthalen-2-ol] | ≥ 20 | 0.202 | 11.2 | 6.72
10 | CCc1cccc2cc(O)cc(-c3nc4c5c(nc(OCC67COC(C6)C7)nc5c3F)N3C[C@H]5CC[C@H](N5)[C@H]3[C@H](C)O4)c12 [Compound 28, 4-((5S,5aS,6S,9R)-12-((2-oxabicyclo[2.1.1]hexan-4-yl)methoxy)-1-fluoro-5-methyl-5a,6,7,8,9,10-hexahydro-5H-4-oxa-3,10a,11,13,14-pentaaza-6,9-methanonaphtho[1,8-ab]heptalen-2-yl)-5-ethylnaphthalen-2-ol] | 11 | 20 | 257 | 363
11 | C=C1CN2CCC[C@@]2(COc2nc3c4c(nc(-c5nc(N)cc(C)c5C(F)(F)F)c(F)c4n2)O[C@@H](C)[C@@H]2[C@@H]4CC[C@H](CN32)N4)C1 [Compound 48, 6-((5S,5aS,6S,9R)-1-fluoro-5-methyl-12-(((S)-2-methylenetetrahydro-1H-pyrrolizin-7a(5H)-yl)methoxy)-5a,6,7,8,9,10-hexahydro-5H-4-oxa-3,10a,11,13,14-pentaaza-6,9-methanonaphtho[1,8-ab]heptalen-2-yl)-4-methyl-5-(trifluoromethyl)pyridin-2-amine] | ≥ 20 | 5.76 | 5.52 | 8.24
12 | Cc1c(F)c(N)cc(-c2nc3c4c(nc(OC[C@@H]5CC[C@H]6COCCN65)nc4c2F)N2C[C@H]4CC[C@H](N4)[C@H]2[C@H](C)O3)c1C(F)(F)F [Compound 31, 2-fluoro-5-((5S,5aS,6S,9R)-1-fluoro-12-(((6S,8aS)-hexahydro-1H-pyrrolo[2,1-c][1,4]oxazin-6-yl)methoxy)-5-methyl-5a,6,7,8,9,10-hexahydro-5H-4-oxa-3,10a,11,13,14-pentaaza-6,9-methanonaphtho[1,8-ab]heptalen-2-yl)-3-methyl-4-(trifluoromethyl)aniline] | 3.79 | 0.423 | 0.808 | 1.64
